From US11420973B2, “Amide substituted indole compounds useful as TLR inhibitors” (BRISTOL-MYERS SQUIBB COMPANY, priority 2017, dated 2022) come the findings set out here.

The target of one assay is human TLR9 (Homo sapiens (Human), UniProt Q9NR96). Briefly: TLR9 inhibition reporter assay (HEK-Blue SEAP reporter, ODN2006 stimulation).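 Also: SEAP reporter under IFN-β minimal promoter with five NF-κB and AP-1 sites, 22 h incubation, compounds 0.05 nM–50 µM, inhibition relative to agonist plus DMSO versus known inhibitor.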 As to conditions: read-out: TLR9 IC50; HEK-Blue cells overexpressing human TLR9, ODN2006 5 nM, SEAP reporter. For orientation: A reporter such as luciferase makes a cellular process visible.
The target in the next assay is human TLR7 (Homo sapiens (Human), UniProt Q9NYK1). Briefly: TLR7 inhibition reporter assay (HEK-Blue SEAP reporter, gardiquimod stimulation). As to conditions: HEK-Blue cells overexpressing human TLR7, gardiquimod 7.5 μM. It is filed as cell-based.
A further assay concerns the target human TLR8 (Homo sapiens (Human), UniProt Q9NR97). In words: TLR8 inhibition reporter assay (HEK-Blue SEAP reporter, R848 stimulation).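 Also: SEAP driven by IFN-β minimal promoter with NF-κB and AP-1 sites, 22 h incubation, compounds 0.05 nM–50 µM, inhibition scaled between agonist plus DMSO and reference inhibitor wells.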 As to conditions: read-out: TLR8 IC50; HEK-Blue cells overexpressing human TLR8, R848 15.9 μM, SEAP reporter.

Sequence of human TLR7 (Q9NYK1 27-1049): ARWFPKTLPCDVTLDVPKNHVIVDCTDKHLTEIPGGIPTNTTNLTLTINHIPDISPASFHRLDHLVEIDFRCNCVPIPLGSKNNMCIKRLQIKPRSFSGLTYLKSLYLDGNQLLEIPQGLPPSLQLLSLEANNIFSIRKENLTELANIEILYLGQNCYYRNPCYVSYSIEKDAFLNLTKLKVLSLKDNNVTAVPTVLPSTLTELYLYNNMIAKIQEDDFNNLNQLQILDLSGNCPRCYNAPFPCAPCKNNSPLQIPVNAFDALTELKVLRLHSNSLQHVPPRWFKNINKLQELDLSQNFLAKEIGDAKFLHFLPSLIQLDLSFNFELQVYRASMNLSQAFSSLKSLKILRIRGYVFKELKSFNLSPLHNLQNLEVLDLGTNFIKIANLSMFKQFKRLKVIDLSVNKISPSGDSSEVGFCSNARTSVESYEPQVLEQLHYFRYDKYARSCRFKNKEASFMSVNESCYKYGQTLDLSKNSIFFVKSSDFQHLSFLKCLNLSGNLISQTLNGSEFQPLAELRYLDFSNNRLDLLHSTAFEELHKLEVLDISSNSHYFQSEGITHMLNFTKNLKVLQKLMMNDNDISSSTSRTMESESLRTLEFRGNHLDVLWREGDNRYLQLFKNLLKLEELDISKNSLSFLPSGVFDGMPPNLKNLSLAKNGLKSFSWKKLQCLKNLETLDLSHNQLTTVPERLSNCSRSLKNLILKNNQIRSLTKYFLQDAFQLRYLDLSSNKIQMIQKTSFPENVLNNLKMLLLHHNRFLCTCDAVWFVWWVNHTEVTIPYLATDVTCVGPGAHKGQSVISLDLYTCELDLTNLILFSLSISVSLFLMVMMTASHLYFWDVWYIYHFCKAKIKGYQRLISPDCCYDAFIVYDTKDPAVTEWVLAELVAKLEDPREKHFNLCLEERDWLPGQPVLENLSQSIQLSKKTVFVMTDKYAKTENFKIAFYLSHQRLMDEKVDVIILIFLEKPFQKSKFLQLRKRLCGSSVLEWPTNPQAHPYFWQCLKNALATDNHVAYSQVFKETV
Sequence of human TLR8 (Q9NR97 27-1041): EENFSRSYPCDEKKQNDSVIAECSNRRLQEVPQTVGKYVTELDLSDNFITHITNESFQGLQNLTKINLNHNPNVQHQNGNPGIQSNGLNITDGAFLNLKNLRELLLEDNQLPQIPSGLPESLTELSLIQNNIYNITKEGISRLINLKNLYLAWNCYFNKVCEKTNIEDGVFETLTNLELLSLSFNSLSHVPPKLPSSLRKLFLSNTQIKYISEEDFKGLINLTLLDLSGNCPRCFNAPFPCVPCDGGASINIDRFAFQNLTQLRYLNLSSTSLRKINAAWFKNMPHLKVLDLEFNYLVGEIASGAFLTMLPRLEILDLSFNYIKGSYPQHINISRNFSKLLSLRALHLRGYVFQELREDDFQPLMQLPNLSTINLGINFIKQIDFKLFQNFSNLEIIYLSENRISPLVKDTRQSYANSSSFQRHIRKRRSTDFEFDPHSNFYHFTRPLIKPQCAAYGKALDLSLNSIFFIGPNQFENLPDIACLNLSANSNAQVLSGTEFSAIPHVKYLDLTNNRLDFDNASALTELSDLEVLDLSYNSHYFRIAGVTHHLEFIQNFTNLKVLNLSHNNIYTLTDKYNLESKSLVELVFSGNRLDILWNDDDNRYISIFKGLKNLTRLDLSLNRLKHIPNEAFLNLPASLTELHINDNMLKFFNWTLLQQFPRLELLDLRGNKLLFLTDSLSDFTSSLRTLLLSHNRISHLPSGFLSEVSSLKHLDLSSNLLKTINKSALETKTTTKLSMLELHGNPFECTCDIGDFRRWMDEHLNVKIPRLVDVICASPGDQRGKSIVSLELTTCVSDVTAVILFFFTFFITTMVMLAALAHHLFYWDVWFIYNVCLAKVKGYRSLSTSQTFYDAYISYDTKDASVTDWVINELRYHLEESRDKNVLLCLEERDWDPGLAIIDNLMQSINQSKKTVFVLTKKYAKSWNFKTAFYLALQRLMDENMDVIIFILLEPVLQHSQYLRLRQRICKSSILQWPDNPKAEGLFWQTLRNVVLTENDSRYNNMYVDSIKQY
Sequence of human TLR9 (Q9NR96 26-1032): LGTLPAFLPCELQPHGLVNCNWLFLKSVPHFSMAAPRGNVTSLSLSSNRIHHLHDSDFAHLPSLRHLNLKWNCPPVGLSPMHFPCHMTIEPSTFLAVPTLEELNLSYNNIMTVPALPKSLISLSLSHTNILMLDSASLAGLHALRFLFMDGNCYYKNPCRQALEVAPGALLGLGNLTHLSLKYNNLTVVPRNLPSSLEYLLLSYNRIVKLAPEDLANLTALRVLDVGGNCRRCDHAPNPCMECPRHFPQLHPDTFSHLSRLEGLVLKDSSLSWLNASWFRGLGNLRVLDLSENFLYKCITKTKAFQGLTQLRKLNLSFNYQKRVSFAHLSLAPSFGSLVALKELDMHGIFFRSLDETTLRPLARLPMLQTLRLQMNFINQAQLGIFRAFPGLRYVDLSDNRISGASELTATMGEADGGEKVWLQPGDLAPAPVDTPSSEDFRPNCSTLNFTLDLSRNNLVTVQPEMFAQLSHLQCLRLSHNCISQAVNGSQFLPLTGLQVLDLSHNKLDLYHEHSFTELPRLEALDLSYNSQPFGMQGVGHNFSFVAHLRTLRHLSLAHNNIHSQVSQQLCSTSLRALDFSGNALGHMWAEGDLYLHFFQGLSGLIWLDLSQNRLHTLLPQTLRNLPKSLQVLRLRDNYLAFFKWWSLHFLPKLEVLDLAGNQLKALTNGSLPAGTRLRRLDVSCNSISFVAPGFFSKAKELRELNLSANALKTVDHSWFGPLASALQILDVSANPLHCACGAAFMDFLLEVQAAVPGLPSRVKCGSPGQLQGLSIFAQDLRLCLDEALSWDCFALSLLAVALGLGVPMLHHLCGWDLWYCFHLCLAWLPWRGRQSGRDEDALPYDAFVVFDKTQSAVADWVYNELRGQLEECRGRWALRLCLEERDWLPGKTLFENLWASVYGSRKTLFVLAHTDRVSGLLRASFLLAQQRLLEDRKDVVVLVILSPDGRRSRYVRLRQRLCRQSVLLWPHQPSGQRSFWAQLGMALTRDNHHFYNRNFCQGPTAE

For orientation: IC50 means the concentration that inhibits the measured activity by half. Consider `CCc1c(-c2ccc(OC)c(OC)c2)[nH]c2ccc(C(=O)N3CCN(CCc4ccccc4)CC3)cc12` [Example 37, (2-(3,4-dimethoxyphenyl)-3-ethyl-1H-indol-5-yl)(4-phenethylpiperazine-1-yl)methanone], for which the IC50 at human TLR9 came to 9940 nM; at human TLR7, 1300 nM; at human TLR8 it was 14 nM.
`CCc1c(-c2ccc(OC)c(OC)c2)[nH]c2ccc(C(=O)N3CCN(C(C)C)CC3)cc12` [Example 38, (2-(3,4-dimethoxyphenyl)-3-ethyl-1H-indol-5-yl)(4-isopropylpiperazin-1-yl)methanone]: the IC50 at human TLR9 came to 5270 nM; against human TLR7, 299 nM; at human TLR8, 1.2 nM.
The matching figures for `CCc1c(-c2ccc(OC)c(OC)c2)[nH]c2ccc(C(=O)N3CCN(CC)CC3)cc12` [Example 39, (2-(3,4-dimethoxyphenyl)-3-ethyl-1H-indol-5-yl)(4-ethylpiperazin-1-yl)methanone]: 4410 nM, 367 nM and 2.2 nM.
As to `CCc1c(-c2ccc(OC)c(OC)c2)[nH]c2ccc(C(=O)N3CCN(CCO)CC3)cc12` [Example 40, (2-(3,4-dimethoxyphenyl)-3-ethyl-1H-indol-5-yl)(4-(2-hydroxyethyl)piperazin-1-yl)methanone], the values for the IC50 on human TLR9, on human TLR7 and at human TLR8 were 8700 nM, 545 nM and 5.7 nM, respectively.
For the compound `CCc1c(-c2ccc(OC)c(OC)c2)[nH]c2ccc(C(=O)N3CCN(CCOC)CC3)cc12` [Example 41, (2-(3,4-dimethoxyphenyl)-3-ethyl-1H-indol-5-yl)(4-(2-methoxyethyl)piperazin-1-yl)methanone], the IC50 on human TLR9 was determined as 26700 nM; against human TLR7, 1140 nM; at human TLR8, 12 nM.
The matching figures for `CCc1c(-c2ccc(OC)c(OC)c2)[nH]c2ccc(C(=O)N3CCN(CCN4CCOCC4)CC3)cc12` [Example 42, (2-(3,4-dimethoxyphenyl)-3-ethyl-1H-indol-5-yl)(4-(2-morpholinoethyl)piperazin-1-yl)methanone]: 9670 nM, 751 nM and 15 nM.
The matching figures for `CCc1c(-c2ccc(OC)c(OC)c2)[nH]c2ccc(C(=O)NCc3ccco3)cc12` [Example 43, 2-(3,4-dimethoxyphenyl)-3-ethyl-N-(furan-2-ylmethyl)-1H-indole-5-carboxamide]: greater than 50000 nM, 2500 nM and 572 nM.
The like results for `CCc1c(-c2ccc(OC)c(OC)c2)[nH]c2ccc(C(=O)NCc3ccccn3)cc12` [Example 44, 2-(3,4-dimethoxyphenyl)-3-ethyl-N-(pyridin-2-ylmethyl)-1H-indole-5-carboxamide] were, in that order, 44800 nM, 1940 nM and 412 nM.
Regarding `CCc1c(-c2ccc(OC)c(OC)c2)[nH]c2ccc(C(=O)NCc3csc(-c4ccccc4)n3)cc12` [Example 45, 2-(3,4-dimethoxyphenyl)-3-ethyl-N-((2-phenylthiazol-4-yl)methyl)-1H-indole-5-carboxamide], the IC50 at human TLR9 was greater than 50000 nM; against human TLR7, 2240 nM; on human TLR8, 1040 nM.
As to `CCc1c(-c2ccc(OC)c(OC)c2)[nH]c2ccc(C(=O)NCc3ccc(N4CCNCC4)cc3)cc12` [Example 46, 2-(3,4-dimethoxyphenyl)-3-ethyl-N-(4-(piperazin-1-yl)benzyl)-1H-indole-5-carboxamide], the IC50 at human TLR9 came to 931 nM; on human TLR7, 391 nM; on human TLR8, 60 nM.
Turning to `CCc1c(-c2ccc(OC)c(OC)c2)[nH]c2ccc(C(=O)NCCN3CCCC3)cc12` [Example 48, 2-(3,4-dimethoxyphenyl)-3-ethyl-N-(2-(pyrrolidin-1-yl)ethyl)-1H-indole-5-carboxamide], the IC50 at human TLR9 amounted to 2700 nM; on human TLR7, 144 nM; on human TLR8 it was 4.8 nM.
The matching figures for `CCc1c(-c2ccc(OC)c(OC)c2)[nH]c2ccc(C(=O)NCc3ccc(N)cc3)cc12` [Example 52, N-(4-aminobenzyl)-2-(3,4-dimethoxyphenyl)-3-ethyl-1H-indole-5-carboxamide]: greater than 50000 nM, 2380 nM and 243 nM.
The matching figures for `CCc1c(-c2ccc(OC)c(OC)c2)[nH]c2ccc(C(=O)NCCCN3CCCCC3)cc12` [Example 53, 2-(3,4-dimethoxyphenyl)-3-ethyl-N-(3-(piperidin-1-yl)propyl)-1H-indole-5-carboxamide]: 2000 nM, 258 nM and 8.1 nM.
The matching figures for `CCc1c(-c2ccc(OC)c(OC)c2)[nH]c2ccc(C(=O)NCCC3CCCN3C)cc12` (stereo not drawn) [Example 54, 2-(3,4-dimethoxyphenyl)-3-ethyl-N-(2-(1-methylpyrrolidin-2-yl)ethyl)-1H-indole-5-carboxamide]: 1810 nM, 206 nM and 12 nM.
Turning to `CCc1c(-c2ccc(OC)c(OC)c2)[nH]c2ccc(C(=O)NCCCN3CCN(C)CC3)cc12` [Example 55, 2-(3,4-dimethoxyphenyl)-3-ethyl-N-(3-(4-methylpiperazin-1-yl)propyl)-1H-indole-5-carboxamide], the IC50 on human TLR9 amounted to 2090 nM; on human TLR7, 954 nM; on human TLR8, 16 nM.
The matching figures for `CCc1c(-c2ccc(OC)c(OC)c2)[nH]c2ccc(C(=O)N3CCC(N4CCCCC4)CC3)cc12` [Example 56, [1,4′-bipiperidin]-1′-yl(2-(3,4-dimethoxyphenyl)-3-ethyl-1H-indol-5-yl)methanone]: 2190 nM, 112 nM and 13 nM.
On to `CCc1c(-c2ccc(OC)c(OC)c2)[nH]c2ccc(C(=O)N3CCN(c4ncccn4)CC3)cc12` [Example 57, (2-(3,4-dimethoxyphenyl)-3-ethyl-1H-indol-5-yl)(4-(pyrimidin-2-yl)piperazin-1-yl)methanone], for which the IC50 at human TLR9 was greater than 50000 nM; against human TLR7, 577 nM; at human TLR8 it was 218 nM.
On to `CCc1c(-c2ccc(OC)c(OC)c2)[nH]c2ccc(C(=O)N3CCN(C(=O)c4ccco4)CC3)cc12` [Example 60, (2-(3,4-dimethoxyphenyl)-3-ethyl-1H-indol-5-yl)(4-(furan-2-carbonyl)piperazin-1-yl)methanone], for which the concentration for half-maximal inhibition (IC50) is greater than 50000 nM on human TLR9, 206 nM on human TLR7 and 115 nM at human TLR8.
The matching figures for `CCc1c(-c2ccc(OC)c(OC)c2)[nH]c2ccc(C(=O)N3CCN(c4ccc(C(F)(F)F)cn4)CC3)cc12` [Example 61, (2-(3,4-dimethoxyphenyl)-3-ethyl-1H-indol-5-yl)(4-(5-(trifluoromethyl)pyridin-2-yl)piperazin-1-yl)methanone]: 10200 nM, 4120 nM and 1620 nM.
Consider `CCc1c(-c2ccc(OC)c(OC)c2)[nH]c2ccc(C(=O)N3CCNC(=O)C3)cc12` [Example 62, 4-(2-(3,4-dimethoxyphenyl)-3-ethyl-1H-indole-5-carbonyl)piperazin-2-one], for which the IC50 at human TLR9 is greater than 50000 nM; on human TLR7, 493 nM; on human TLR8 it was 381 nM.
For `CCc1c(-c2ccc(OC)c(OC)c2)[nH]c2ccc(C(=O)N3CCC(n4c(=O)[nH]c5ccccc54)CC3)cc12` [Example 63, 1-(1-(2-(3,4-dimethoxyphenyl)-3-ethyl-1H-indole-5-carbonyl)piperidin-4-yl)-1,3-dihydro-2H-benzo[d]imidazol-2-one], the IC50 at human TLR9 worked out at 13600 nM; at human TLR7, 801 nM; at human TLR8, 464 nM.
The matching figures for `CCc1c(-c2ccc(OC)c(OC)c2)[nH]c2ccc(C(=O)N3CCCN(c4ncccn4)CC3)cc12` [Example 64, (2-(3,4-dimethoxyphenyl)-3-ethyl-1H-indol-5-yl)(4-(pyrimidin-2-yl)-1,4-diazepan-1-yl)methanone]: 16600 nM, 1280 nM and 2190 nM.
As to `CCc1c(-c2ccc(OC)c(OC)c2)[nH]c2ccc(C(=O)N3CCCN(c4ccccn4)CC3)cc12` [Example 65, (2-(3,4-dimethoxyphenyl)-3-ethyl-1H-indol-5-yl)(4-(pyridin-2-yl)-1,4-diazepan-1-yl)methanone], the IC50 on human TLR9 came to 7240 nM; against human TLR7, 1210 nM; on human TLR8, 1630 nM.
Take `CCc1c(-c2ccc(OC)c(OC)c2)[nH]c2ccc(C(=O)N3CCc4ccccc43)cc12` [Example 66, (2-(3,4-dimethoxyphenyl)-3-ethyl-1H-indol-5-yl)(indolin-1-yl)methanone]: the IC50 at human TLR9 was greater than 50000 nM; on human TLR7, 3940 nM; at human TLR8, 1170 nM.
The matching figures for `CCc1c(-c2ccc(OC)c(OC)c2)[nH]c2ccc(C(=O)NC(CO)CO)cc12` [Example 67, N-(1,3-dihydroxypropan-2-yl)-2-(3,4-dimethoxyphenyl)-3-ethyl-1H-indole-5-carboxamide]: greater than 50000 nM, 1770 nM and 412 nM.
`CCc1c(-c2ccc(OC)c(OC)c2)[nH]c2ccc(C(=O)NCCC(N)=O)cc12` [Example 68, N-(3-amino-3-oxopropyl)-2-(3,4-dimethoxyphenyl)-3-ethyl-1H-indole-5-carboxamide]: the figures for the IC50 at human TLR9, at human TLR7 and at human TLR8 were greater than 50000 nM, 1710 nM and 277 nM, respectively.
The like results for `CCc1c(-c2ccc(OC)c(OC)c2)[nH]c2ccc(C(=O)NCCO)cc12` [Example 69, 2-(3,4-dimethoxyphenyl)-3-ethyl-N-(2-hydroxyethyl)-1H-indole-5-carboxamide] were, in that order, greater than 50000 nM, 968 nM and 274 nM.
